Measurements taken from the supplement of paper PMC11451515.

Experiments:
Details in all cases: 48 h
[1] = test system: P12-Ichikawa; experiment: AUC of viability dose-response curve (% viability x log10 dose units); higher = less sensitive
Method in brief: (§1)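 Library compounds in DMSO were applied for 48 h at 37°C at 11 threefold doses (47 μM to 0.79 nM) to medium-adapted leukemia cells in 1536-well plates holding 500 or 1000 cells/well. Luminescence from CellTiter-Glo One was normalised plate by plate against DMSO and cell-free wells. Area under the curve came from trapezoidal integration of a log-logistic fit, after scaling curves that rose above full viability and discarding those that failed quality control. The fit had four parameters and used log10 doses.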

[2] = test system: SEM cells; experiment: as above
Method in brief: as §1

[3] = test system: NOMO1; experiment: as above
Method in brief: as §1

[4] = test system: P12-Ichikawa; experiment: cell viability relative to DMSO control; higher = less cytotoxic
Method in brief: (§2)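 NOMO1 or SEM (500 cells/well) or P12-Ichikawa (1000 cells/well) leukemia cells were adapted for at least four passages in each medium. They were seeded in 1536-well plates (5 μl) and pin-dosed with library compounds in DMSO over an 11-point threefold series, 47 μM to 0.79 nM. CellTiter-Glo One luminescence was read after 48 h at 37°C. Viability is the per-plate percentage relative to DMSO wells, with cell-free wells as background.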

[5] = test system: SEM cells; experiment: as above
Method in brief: as §2

[6] = test system: NOMO1; experiment: as above
Method in brief: as §2

CCNC(=O)Nc1ccc(-c2nc3c(c(N4CCOC[C@@H]4C)n2)CCN(C2COC2)C3)cc1
AUC of viability dose-response curve
Details | [1] | [2] | [3]
HPLM + 10% dialyzed FBS | 370 | 366 | 352
RPMI 5 mM glucose + 10% FBS | 358 | 353 | 407
RPMI 5 mM glucose + 10% dialyzed FBS | 356 | 378 | 380

cell viability [%]
Details | [4] | [5] | [6]
HPLM + 10% dialyzed FBS, 0.000781 µM | 114 | 96.1 | 117
HPLM + 10% dialyzed FBS, 0.00234 µM | 111 | 116 | 130
HPLM + 10% dialyzed FBS, 0.00702 µM | 113 | 111 | 102
HPLM + 10% dialyzed FBS, 0.0211 µM | 112 | 113 | 119
HPLM + 10% dialyzed FBS, 0.0632 µM | 110 | 108 | 101
HPLM + 10% dialyzed FBS, 0.19 µM | 100 | 87.7 | 95.9
HPLM + 10% dialyzed FBS, 0.569 µM | 82.1 | 98.9 | 88.6
HPLM + 10% dialyzed FBS, 1.71 µM | 63.8 | 57.7 | 66.5
HPLM + 10% dialyzed FBS, 5.12 µM | 56.6 | 43.5 | 57.6
HPLM + 10% dialyzed FBS, 15.4 µM | 49.5 | 31.7 | 44.5
HPLM + 10% dialyzed FBS, 46.1 µM | 46.1 | 32.1 | 40.5
RPMI 5 mM glucose + 10% FBS, 0.000781 µM | 113 | 105 | 109
RPMI 5 mM glucose + 10% FBS, 0.00234 µM | 113 | 105 | 102
RPMI 5 mM glucose + 10% FBS, 0.00702 µM | 107 | 114 | 105
RPMI 5 mM glucose + 10% FBS, 0.0211 µM | 116 | 108 | 107
RPMI 5 mM glucose + 10% FBS, 0.0632 µM | 104 | 113 | 105
RPMI 5 mM glucose + 10% FBS, 0.19 µM | 96.8 | 95.1 | 94.6
RPMI 5 mM glucose + 10% FBS, 0.569 µM | 82.7 | 87.8 | 98.9
RPMI 5 mM glucose + 10% FBS, 1.71 µM | 61.6 | 55.7 | 84.6
RPMI 5 mM glucose + 10% FBS, 5.12 µM | 55.4 | 41.1 | 67.3
RPMI 5 mM glucose + 10% FBS, 15.4 µM | 41.3 | 27 | 52.8
RPMI 5 mM glucose + 10% FBS, 46.1 µM | 33.9 | 20.9 | 46.6
RPMI 5 mM glucose + 10% dialyzed FBS, 0.000781 µM | 114 | 119 | 108
RPMI 5 mM glucose + 10% dialyzed FBS, 0.00234 µM | 108 | 125 | 115
RPMI 5 mM glucose + 10% dialyzed FBS, 0.00702 µM | 111 | 104 | 119
RPMI 5 mM glucose + 10% dialyzed FBS, 0.0211 µM | 106 | 120 | 102
RPMI 5 mM glucose + 10% dialyzed FBS, 0.0632 µM | 103 | 121 | 98.4
RPMI 5 mM glucose + 10% dialyzed FBS, 0.19 µM | 95.8 | 109 | 97.2
RPMI 5 mM glucose + 10% dialyzed FBS, 0.569 µM | 79.3 | 102 | 101
RPMI 5 mM glucose + 10% dialyzed FBS, 1.71 µM | 64.1 | 79.2 | 66.7
RPMI 5 mM glucose + 10% dialyzed FBS, 5.12 µM | 54.6 | 51.4 | 66.5
RPMI 5 mM glucose + 10% dialyzed FBS, 15.4 µM | 39.9 | 41 | 52.8
RPMI 5 mM glucose + 10% dialyzed FBS, 46.1 µM | 32.7 | 36.1 | 45.4

Cc1cccc(N(C)C(=S)Oc2ccc3ccccc3c2)c1
AUC of viability dose-response curve
Details | [1] | [2] | [3]
HPLM + 10% dialyzed FBS | 469 | 445 | 460
RPMI 5 mM glucose + 10% FBS | 466 | 470 | 470
RPMI 5 mM glucose + 10% dialyzed FBS | 471 | 476 | 469

cell viability [%]
Details | [4] | [5] | [6]
HPLM + 10% dialyzed FBS, 0.000781 µM | 98.1 | 79.4 | 110
HPLM + 10% dialyzed FBS, 0.00234 µM | 114 | 91.8 | 120
HPLM + 10% dialyzed FBS, 0.00702 µM | 109 | 83.8 | 116
HPLM + 10% dialyzed FBS, 0.0211 µM | 109 | 98.8 | 124
HPLM + 10% dialyzed FBS, 0.0632 µM | 118 | 90.7 | 117
HPLM + 10% dialyzed FBS, 0.19 µM | 94.2 | 104 | 112
HPLM + 10% dialyzed FBS, 0.569 µM | 107 | 96.8 | 123
HPLM + 10% dialyzed FBS, 1.71 µM | 109 | 84.7 | 121
HPLM + 10% dialyzed FBS, 5.12 µM | 111 | 106 | 100
HPLM + 10% dialyzed FBS, 15.4 µM | 111 | 96.5 | 92
HPLM + 10% dialyzed FBS, 46.1 µM | 109 | 87.2 | 110
RPMI 5 mM glucose + 10% FBS, 0.000781 µM | 109 | 79.7 | 99.9
RPMI 5 mM glucose + 10% FBS, 0.00234 µM | 107 | 102 | 94.2
RPMI 5 mM glucose + 10% FBS, 0.00702 µM | 111 | 96.1 | 106
RPMI 5 mM glucose + 10% FBS, 0.0211 µM | 112 | 90.8 | 107
RPMI 5 mM glucose + 10% FBS, 0.0632 µM | 113 | 108 | 108
RPMI 5 mM glucose + 10% FBS, 0.19 µM | 116 | 86.7 | 98.8
RPMI 5 mM glucose + 10% FBS, 0.569 µM | 116 | 110 | 97.2
RPMI 5 mM glucose + 10% FBS, 1.71 µM | 112 | 109 | 97.3
RPMI 5 mM glucose + 10% FBS, 5.12 µM | 107 | 107 | 94.5
RPMI 5 mM glucose + 10% FBS, 15.4 µM | 99.6 | 99.4 | 103
RPMI 5 mM glucose + 10% FBS, 46.1 µM | 92.4 | 85 | 99.6
RPMI 5 mM glucose + 10% dialyzed FBS, 0.000781 µM | 95.1 | 95.6 | 98.1
RPMI 5 mM glucose + 10% dialyzed FBS, 0.00234 µM | 101 | 114 | 105
RPMI 5 mM glucose + 10% dialyzed FBS, 0.00702 µM | 104 | 102 | 99.8
RPMI 5 mM glucose + 10% dialyzed FBS, 0.0211 µM | 108 | 108 | 112
RPMI 5 mM glucose + 10% dialyzed FBS, 0.0632 µM | 104 | 108 | 99.8
RPMI 5 mM glucose + 10% dialyzed FBS, 0.19 µM | 109 | 96.7 | 95.2
RPMI 5 mM glucose + 10% dialyzed FBS, 0.569 µM | 106 | 129 | 107
RPMI 5 mM glucose + 10% dialyzed FBS, 1.71 µM | 109 | 117 | 110
RPMI 5 mM glucose + 10% dialyzed FBS, 5.12 µM | 103 | 115 | 104
RPMI 5 mM glucose + 10% dialyzed FBS, 15.4 µM | 104 | 101 | 101
RPMI 5 mM glucose + 10% dialyzed FBS, 46.1 µM | 80.4 | 89 | 106

O=C([O-])[C@H](CC(=O)N1C[C@H]2CCCC[C@H]2C1)Cc1ccccc1
AUC of viability dose-response curve
Details | [1] | [2] | [3]
HPLM + 10% dialyzed FBS | 445 | 395 | 465
RPMI 5 mM glucose + 10% FBS | 442 | 418 | 440
RPMI 5 mM glucose + 10% dialyzed FBS | 471 | 374 | 448

cell viability [%]
Details | [4] | [5] | [6]
HPLM + 10% dialyzed FBS, 0.000781 µM | 107 | 79.8 | 116
HPLM + 10% dialyzed FBS, 0.00234 µM | 118 | 91.7 | 120
HPLM + 10% dialyzed FBS, 0.00702 µM | 120 | 88.2 | 135
HPLM + 10% dialyzed FBS, 0.0211 µM | 129 | 72.7 | 133
HPLM + 10% dialyzed FBS, 0.0632 µM | 123 | 107 | 138
HPLM + 10% dialyzed FBS, 0.19 µM | 125 | 109 | 123
HPLM + 10% dialyzed FBS, 0.569 µM | 125 | 103 | 128
HPLM + 10% dialyzed FBS, 1.71 µM | 119 | 106 | 145
HPLM + 10% dialyzed FBS, 5.12 µM | 131 | 119 | 134
HPLM + 10% dialyzed FBS, 15.4 µM | 130 | 125 | 156
HPLM + 10% dialyzed FBS, 46.1 µM | 134 | 121 | 122
RPMI 5 mM glucose + 10% FBS, 0.000781 µM | 114 | 93.8 | –
RPMI 5 mM glucose + 10% FBS, 0.00234 µM | 129 | 110 | –
RPMI 5 mM glucose + 10% FBS, 0.00702 µM | 122 | 105 | –
RPMI 5 mM glucose + 10% FBS, 0.0211 µM | 129 | 87.7 | –
RPMI 5 mM glucose + 10% FBS, 0.0632 µM | 134 | 102 | –
RPMI 5 mM glucose + 10% FBS, 0.19 µM | 131 | 108 | –
RPMI 5 mM glucose + 10% FBS, 0.569 µM | 131 | 106 | –
RPMI 5 mM glucose + 10% FBS, 1.71 µM | 131 | 112 | –
RPMI 5 mM glucose + 10% FBS, 5.12 µM | 137 | 117 | –
RPMI 5 mM glucose + 10% FBS, 15.4 µM | 139 | 128 | –
RPMI 5 mM glucose + 10% FBS, 46.1 µM | 142 | 119 | –
RPMI 5 mM glucose + 10% dialyzed FBS, 0.000781 µM | 113 | 85.1 | –
RPMI 5 mM glucose + 10% dialyzed FBS, 0.00234 µM | 122 | 103 | –
RPMI 5 mM glucose + 10% dialyzed FBS, 0.00702 µM | 126 | 107 | –
RPMI 5 mM glucose + 10% dialyzed FBS, 0.0211 µM | 134 | 65.5 | –
RPMI 5 mM glucose + 10% dialyzed FBS, 0.0632 µM | 123 | 95.7 | –
RPMI 5 mM glucose + 10% dialyzed FBS, 0.19 µM | 127 | 117 | –
RPMI 5 mM glucose + 10% dialyzed FBS, 0.569 µM | 129 | 115 | –
RPMI 5 mM glucose + 10% dialyzed FBS, 1.71 µM | 122 | 105 | –
RPMI 5 mM glucose + 10% dialyzed FBS, 5.12 µM | 135 | 129 | –
RPMI 5 mM glucose + 10% dialyzed FBS, 15.4 µM | 131 | 137 | –
RPMI 5 mM glucose + 10% dialyzed FBS, 46.1 µM | 129 | 140 | –
